# Measurements published in article PMC6429200, “Synthesis and Broad Antiviral Activity of Novel 2-aryl-isoindolin-1-ones towards Diverse Enterovirus A71 Clinical Isolates” (Molecules, 2019).
# Values joined by “and” are separate entries in the source; they are usually repeats but may differ in a detail not shown here. Equal entries are not always repeated.
# Tests used:
# [1] = Cytotoxicity assay (CPE) on Vero cells; assay type: cell-based; details: African green monkey; Vero cells, 3 days of incubation, Reed–Muench; read-out: CC50
# Method in brief: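 Vero cells seeded at 3 × 10^4 cells/well overnight, then exposed in triplicate to graded compound concentrations for 3 days. CC50, the concentration inhibiting 50% cell growth versus untreated controls, calculated by Reed–Muench.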
# [2] = tested on: EV-A71 (H strain) VP1 RNA; assay: qRT-PCR of VP1 RNA in infected Vero cells; assay type: cell-based, Enterovirus 71 (EV-A71); details: H strain MOI = 0.1, 1 h infection then A3 for 24 h, RT-qPCR
# Procedure: (§1) To further confirm the anti-EV-A71 activity, the expression levels of VP1 RNA and protein were determined. Vero cells were infected with the H strain of EV-A71 for 1 h followed by treatment with A3 of various concentrations for another 24 h. […] Meanwhile, the antiviral efficacy of A3 was also tested using viral titer reduction assays.
# Vero cells (9 × 10^5cells/well) were plated into 6-well culture plates for incubation for 16 h. The medium was removed and cells were infected with EV-A71 (H, MOI = 0.1). After 1 h, various concentrations of A3 were supplemented and incubated for another 24 h. The total RNA of the infected cells was extracted using the RNeasy Mini kit (QIAGEN) according to the manufacturer’s instructions. […] The RNA expression of EV-A71 VP1 was detected with the sense primer 5′-GATATCCCACATTCGGTGA-3′ and the antisense primer 5′-[…] -3′ targeting a conserved region of the VP1 gene. β-Actin mRNA was detected using the sense primers 5′-TGACGGGGT CACCCACA CTGTGCCCATCTA-3′ and the antisense primer 5′-CTAGAAGCATTTG CGGTGGACG ATG-3′. […] The relative amounts of EV-A71 VP1 mRNA were calculated by the comparative Ct method after normalizing the quantity of β-actin [15].
# (§2) Figure 2 Compound A3 inhibited EV-A71 replication in vitro. […] Intracellular viral VP1 protein (A) and RNA (B) were determined by Western blot and qRT-PCR assays, respectively. […]
# EV-A71 strain H = assay: CPE inhibition assay for anti-EV-A71 in Vero cells, H strain; assay type: cell-based, Enterovirus 71 (EV-A71)
# Method in brief: (§3)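 Vero cells (3 × 10^4/well) were infected for 1 h at 37 °C with 100TCID50 of each EV-A71 strain in serum-free medium. After virus removal, compounds were added at 3-fold dilutions (400~0.18 μM) for 48 h. Viral cytopathic effect was scored, and EC50 was derived by the Reed–Muench method.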
# [3] = tested on: four EV-A71 strains (BrCr, H, Shenzhen98, Jiangsu52); assay: CPE inhibition assay, summary over four EV-A71 strains; assay type: cell-based, Enterovirus 71 (EV-A71)
# Procedure: An in-vitro antiviral assay was established using the Africa monkey kidney cell line Vero which was infected with different EV-A71 clinical isolates (BrCr, H, Shenzhen98 and Jiangsu52). A total of 24 synthetic compounds were initially screened in such an assay to determine their inhibitory effect on virus replication at 3-fold diluted concentrations serial (400~0.18 μM). The 50% effective concentration (EC50) of each compound was calculated according to its inhibitory rate values with the Reed–Muench method. The 50% cytotoxic concentration (CC50) was defined as the concentration that inhibited 50% cellular growth in comparison with the controls. The selectivity index (SI) was calculated as CC50/EC50. […] Generally, the EV-A71 H strain was less sensitive to most of the active compounds as compared to the other virus strains.
# The anti-EV-A71 activity of compounds was determined by the CPE inhibition method. Briefly, cells (3 × 10^4 cells/well) were plated into 96-well culture plates for incubation for 24 h. The medium was then removed and cells were infected with EV-A71 with 100TCID50 (50% tissue culture infective doses) in serum-free medium for 1 h at 37 °C. Then, the unbound viruses were removed and various concentrations of compounds were supplemented and incubated for another 48 h. The EC50 was determined by the Reed–Muench method. The selectivity index was calculated as the ratio of CC50/EC50 [15].
# EV-A71 strain BrCr = assay: CPE inhibition assay for anti-EV-A71 in Vero cells, BrCr strain; assay type: cell-based, Enterovirus 71 (EV-A71)
# Method in brief: as §3
# [4] = tested on: EV-A71 (H strain) VP1 protein; assay: Western blot of viral VP1 protein in infected Vero cells; assay type: cell-based, Enterovirus 71 (EV-A71); details: H strain MOI = 0.1, 1 h infection then A3 for 24 h
# Procedure: as §1
# Vero cells (9 × 10^5 cells/well) were plated into 6-well culture plates for incubation for 16 h. The medium was removed and cells were infected with EV-A71 (H, MOI = 0.1). After 1 h, various concentrations of A3 were supplemented for incubation for another 24 h. The cells were lysed in the M-PER mammalian protein extraction reagent (Thermo, Rockford, IL, USA) containing halt protease inhibitor single-use cocktail (Thermo). The protein concentration was determined by the BCA reagents (Thermo). About 15 μg of proteins was denatured and applied to sodium dodecyl sulfate-polyacrylamide gel electrophoresis (SDS-PAGE). The electrophoresis products were transferred to a polyvinyl idenefluoride (PVDF) film and PVDF membranes were then incubated at room temperature with a specific primary antibody. […]
# as §2
# [5] = Enterovirus A, EVA71, Vero cells, 100TCID50, 48 h
smiles,measurement,setting,value
"O=C1c2ccccc2CN1c1ccc(Cl)cc1 [Compound A3, 2-(4-chlorophenyl)isoindolin-1-one]",CC50 at 3 days,[1],257000 ± 35300 nM
same,VP1 RNA expression level,[2],significantly reduced VP1 RNA expression level in a dose-dependent way
same,H SI,EV-A71 strain H; CC50/EC50,168
same,EC50,EV-A71 strain H; [5],1530 ± 160 nM
same,SI towards four EV-A71 strains,"[3]; CC50/EC50, range over four strains",168-199 and 98–199
same,IC50,"[3]; Enterovirus A, EV71 / EVA71, read-out: Anti-EV71 IC50",1290 to 1530 nM
same,EC50,"[3]; Enterovirus A, EVA71, Vero, read-out: EC50 towards four EV-A71 strains",1230 to 1760 nM
same,EC50 fold higher than pirodavir,[3]; relative to reference compound pirodavir,2–4 fold
same,BrCr SI,EV-A71 strain BrCr; CC50/EC50,199
same,EC50,EV-A71 strain BrCr; [5],1290 ± 240 nM
same,viral VP1 protein level,[4],decreased the levels of viral VP1 protein in a dose-dependent manner
